Legend:
Type in all cases: functional
[1] = test system: Mus musculus; test: Analgesic activity in Mus musculus Swiss albino (mouse) assessed as protection against acetic acid-induced writhing response at 20 mg/kg, po administered 30 min before acetic acid challenge measured at 1 hr after challenge
[2] = test system: Mus musculus; test: Analgesic activity in Mus musculus Swiss albino (mouse) assessed as protection against acetic acid-induced writhing response at 20 mg/kg, po administered 30 min before acetic acid challenge measured at 0.5 hr after challenge
[3] = test system: Mus musculus; test: Analgesic activity in Mus musculus Swiss albino (mouse) assessed as protection against acetic acid-induced writhing response at 20 mg/kg, po administered 30 min before acetic acid challenge measured at 2 hr after challenge

SMILES	Activity [1] [%]	Activity [2] [%]	Activity [3] [%]
Nc1nc(-c2cccc(Cl)c2)cc(-c2cc3ccccc3oc2=O)n1	60.58	52.21	56.5
Nc1nc(-c2ccccc2Cl)cc(-c2cc3ccccc3oc2=O)n1	12.05	8.22	11.63
Nc1nc(-c2cccc(Br)c2)cc(-c2cc3ccccc3oc2=O)n1	33.52	25.94	31.57
O=C([O-])Cc1ccccc1Nc1c(Cl)cccc1Cl.[Na+] [DICLOFENAC SODIUM]	96.76	91.13	93.35
COc1ccccc1-c1cc(-c2cc3ccccc3oc2=O)nc(N)n1	35.58	35.44	33.79
Nc1nc(-c2ccc(Br)cc2)cc(-c2cc3ccccc3oc2=O)n1	29.41	28.16	26.59
Nc1nc(-c2ccccc2Br)cc(-c2cc3ccccc3oc2=O)n1	30.58	23.41	27.7
COc1cccc(-c2cc(-c3cc4ccccc4oc3=O)nc(N)n2)c1	53.52	46.51	49.3
Nc1nc(-c2ccc(Cl)cc2)cc(-c2cc3ccccc3oc2=O)n1	12.35	9.49	10.8

From ChEMBL document CHEMBL3046531, “Analgesic study of novel pyrimidine derivatives linked with coumarin moiety” (2012)
